Results: the NIST ThermoML archive (doi:10.1016/j.fluid.2006.07.003)
Numbers after ± are expanded uncertainties.

Experiments:
[1] = refractive index (Na D-line) (dimensionless); details: 298.15 K; 101.33 kPa; Liquid; Standard Abbe refractometry
[2] = Liquid; for mass density: 298.15 K, 101.33 kPa

Row | Structure (SMILES) | refractive index [1] | mass density [2] | vapor or sublimation pressure ([2]; 363.16 K) | vapor or sublimation pressure ([2]; 369.75 K) | vapor or sublimation pressure ([2]; 410.62 K)
1 | CCCOCCC [dipropyl ether] | 1.3784 ± 0.0008 | 741.81 ± 0.91 kg/m3 | 101.3 ± 1.8 kPa | – | –
2 | CCCO [propan-1-ol] | 1.3836 ± 0.0007 | 799.62 ± 0.48 kg/m3 | – | 101.3 ± 1.8 kPa | –
3 | CCCCCO [pentan-1-ol] | 1.408 ± 0.0008 | 810.89 ± 0.77 kg/m3 | – | – | 101.3 ± 1.8 kPa
